The subject of assay [1] is Acinetobacter baumannii ATCC17968. Briefly: Antimicrobial susceptibility testing: 90% growth inhibitory concentration (IC90) determination in Iso-Sensitest broth, OD600 growth. In kind it is cell-based. Conditions: strain ATCC 17978, Iso-Sensitest broth, OD600 growth over 16 h, read-out: A. baumannii ATCC 17978 IC90. The method in brief: (§1)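 Twofold compound dilutions (e.g. 50 to 0.097 μM final) in Iso-Sensitest broth with ~5×10^(5) CFU/ml, 35±2 °C. OD600 read every 20 min over 16 h; IC90 from growth inhibition during logarithmic phase.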

The test system of assay [2] is Acinetobacter baumannii ATCC17961. Described as above. It counts as cell-based. The settings on record: strain ATCC 17961, OD600 growth over 16 h, read-out: A. baumannii ATCC 17961 IC90. The method in brief: as §1

Where a name gives a salt, the structure may show the parent alone. Read-outs that look alike come from different tables or passages of the source.

By IC90 is commonly meant the concentration needed for an effect of 90%. As for `CCc1cc(Nc2nccn3c(-c4cn(C)nc4C(F)(F)F)cnc23)ccc1C(=O)NCCOCCN` [Example 1, N-[2-(2-aminoethoxy)ethyl]-2-ethyl-4-[[3-[1-methyl-3-(trifluoromethyl)pyrazol-4-yl]imidazo[1,2-a]pyrazin-8-yl]amino]benzamide], the IC90 in assay [1] (Acinetobacter baumannii, ATCC 17968 / ATCC 17978) came to 930 nM; in assay [2] (Acinetobacter baumannii, ATCC17961, 16 h), 623 nM.

Consider `CCc1cc(Nc2nccn3c(-c4c[nH]nc4C(F)(F)F)cnc23)ccc1C(=O)NCCOCCN` [Example 23, N-[2-(2-aminoethoxy)ethyl]-2-ethyl-4-[[3-[3-(trifluoromeethyl) 1H-pyrazol-4-yl]imidazo[1,2-a]pyrazin-8-yl]amino] benzamide formate], for which the concentration for an effect of 90% (IC90) was determined as 297 nM in assay [1] and 128 nM in assay [2].

(Values after patent publication US20230203043A1, “NOVEL IMIDAZOPYRAZINE DERIVATIVES” (Hoffmann-La Roche Inc., priority 2020, published 2023).)
